Each structure is given as a SMILES string.

In patent US6204277A, “Propionic acid derivatives and applications thereof” (Japan Tobacco Inc., priority 1996, dated 2001) one finds EC50 and ED50 data, which are given here for 13 compounds.

In experiment [1] the test system is 3T3-L1 cells. As to the kind of experiment: Evaluation of Insulin Sensitivity Using 3T3-L1 Cells (triglyceride accumulation). The note with it: Mus musculus, 96 h, insulin 10 ng/ml, 4 days, triglyceride increase by 10 μM pioglitazone taken as 100%, read-out: EC50 (dose necessary for a 50% increase of triglyceride). In kind it is cell-based. The method, then: Evaluation of Insulin Sensitivity Using 3T3-L1 Cells 3T3-L1 cells (purchased from American Type Culture Collection) which were in the n=x+3 passage were purchased and subcultured until the passage number reached n=x+8. The cells were frozen in liquid nitrogen, thawed and suboultured till n=x+11. 0.05% Trypsin-0.53 mM ethylenediaminetetraacetic acid (EDTA) was added and the cells were harvested. The cells were suspended in Dulbecco's modified Eagle's medium (DMEM) [5% fetal bovine serum (FBS), supplemented with 5.6 mM glucose], plated on a 24 well plate at a concentration of 0.5×10^5 cells/well and cultured. Two days later, the medium was changed to DMEM [5% FBS, supplemented with 5.6 mM glucose] containing 1 μM dexamethasone and 0.5 mM isobutylmethylxanthine and the incubation was continued for 2 more days. The test compounds were dissolved in dimethyl sulfoxide and diluted 1000-fold with DMEM [2% FBS, supplemented with 5.6 mM glucose] containing insulin (10 ng/ml) to make the final concentration thereof to 0 nM-10 μM, and added to the cells, which cells were incubated for 4 days. After incubation, isopropanol was added by 200 μl per well and the cells were ruptured by a probe type ultrasonicator. The triglyceride amount was determined using a triglyceride determination kit. The activity of the compounds was determined by calculating relative triglyceride increase achieved by each compound when that achieved by 10 μM pioglitazone was taken as 100%, and expressed by the dose (EC50) necessary for a 50% increase of triglyceride. The test compounds were those of Examples 1-3, 5, 8, 15, 16, 18, 19, 22 and 28 and Reference Example 1. As a control compound, used was a known compound of the following formula. The above test concerns whether or not the insulin sensitivity of 3T3-L1 cells is promoted. […] When insulin acts on 3T3-L1 cells, it not only takes up glucose but permits accumulation of triglyceride in the cells. Thus, after allowing insulin to act, the cells are ruptured and triglyceride is quantitatively determined, whereby the degree of the action of insulin and the degree of sensitivity can be known.

The test system of experiment [2] is diabetic mice (KK-Ay). As to the kind of experiment: Evaluation of Serum Glucose of Diabetic Mice. In kind it is in vivo. The following applies: Mus musculus, 96 h; KK-Ay male mice, oral in diet, 4 days; read-out: Serum glucose ED50 (dose corresponding to a -50% change). The method, then: Evaluation of Serum Glucose of Diabetic Mice
Genetically obese, hyperglycemic, hyperinsulinemic and hyperlipidemic diabetic mice (KK-Ay, male, Clea Japan, Inc., 8 weeks of age) were used for the pharmacological tests. Before the initiation of the drug administration, about 100 μl of blood was taken from orbital venosus under light ether anesthesia, and serum glucose was measured as described below. Based on the obtained value and body weight, the mice were grouped (6 per group) in such a manner that there existed no differences between the groups.
The test compounds were those of Examples 1 and 5 and Reference Example 1, as well as the above-mentioned control compound.
The test compounds were respectively dissolved in ethanol (three levels of concentrations per compound) and added to a powdered diet (CRF-1, ORIENTAL YEAST CO., LTD.). The diet was homogeneously mixed and ethanol was evaporated. The diet was given to the above-mentioned mice for 4 days, and the test compounds were orally administered (3 doses each). To a control group, CRF-1 powdered diet was given.
At day 4, blood samples (ca. 200 μl) were taken again in the same manner as above, and serum was separated (12,000 rpm, 5 min.) and used for the determination. Serum glucose was measured by hexokinase method (LYQUITECH glucose-HK-test; Boehlinger Marnheim Yamanouchi). Used for the determination was an automatic analyzer COBAS FARA II (Roche).
Changes in percentage of serum glucose of each group were calculated as follows from the values obtained at day 4 from the control group and the group administered with test compounds. [formula]
The changes in percentage of serum glucose was plotted on the axis of ordinates and the dose (mg/kg/day) of the test compound was plotted on the axis of abscissa (log), and the dose corresponding to a -50% change was read and taken as the ED50 of each test compound.

Turning to `CCc1ccc(CCOc2ccc(CC3SC(=O)NC3=O)cc2)nc1` (centres unmarked) [Control compound, reference compound], the EC50 in experiment [1] was found to be 180 nM. In addition, in experiment [2], the ED50 stood at 10.6 mg/kg. On the same counts, the results for `COC(=O)C(Cc1ccc(OCCc2nc(-c3ccccc3)oc2C)cc1)C(=O)O` (centres unmarked) [Example 1, 2-Methoxycarbonyl-3-[4-[2-(5-methyl-2-phenyl-4-oxazolyl)ethoxy]phenyl]propionic acid] are 0.45 nM and 0.12 mg/kg. In the case of `COC(=O)C(Cc1ccc(OCCc2nc(-c3ccccc3)oc2C)cc1)C(N)=O` (centres unmarked) [Example 2, Methyl 2-carbamoyl-3-[4-[2-(5-methyl-2-phenyl-4-oxazolyl)ethoxy]phenyl]propionate], in experiment [1], the EC50 came to 90 nM. On the same count and under the same terms, for `Cc1oc(-c2ccccc2)nc1CCOc1ccc(CC(C(N)=O)C(=O)O)cc1` (centres unmarked) [Example 3, 2-Carbamoyl-3-[4-[2-(5-methyl-2-phenyl-4-oxazolyl)ethoxy]phenyl]propionic acid] the value was 150 nM.

For the compound `Cc1oc(-c2ccccc2)nc1CCOc1ccc(CC(C(=O)O)C(=O)O)cc1` [Example 5, 2-[4-[2-(5-Methyl-2-phenyl-4-oxazolyl)ethoxy]benzyl]malonic acid], the EC50 in experiment [1] was 7.2 nM. For the same compound, the ED50 in experiment [2] was determined as 2.7 mg/kg.

As for `COC(=O)NC(=O)C(Cc1ccc(OCCc2nc(-c3ccccc3)oc2C)cc1)C(=O)OC` (centres unmarked) [Example 8, Methyl 2-methoxycarbonylcarbamoyl-3-[4-[2-(5-methyl-2-phenyl-4-oxazolyl)ethoxy]phenyl]propionate], the EC50 in experiment [1] was 7 nM. The same measure, in the same setting: for `Cc1oc(-c2cc3ccccc3s2)nc1CCOc1ccc(CCC(=O)NC(N)=O)cc1` [Example 15, N-[3-[4-[2-(2-(Benzothiophen-2-yl)-5-methyl-4-oxazolyl)ethoxy]phenyl]propionyl]urea] the value was 90 nM. `COC(=O)CCc1ccc(OCCc2nc(-c3ccccc3)oc2C)cc1` [Example 16, Methyl 3-[4-[2-(5-methyl-2-phenyl-4-oxazolyl)ethoxy]phenyl]propionate]: the EC50 in experiment [1] was 53 nM.

For the compound `Cc1oc(-c2ccccc2)nc1CCOc1ccc(CCC(N)=O)cc1` [Example 18, 3-[4-[2-(5-Methyl-2-phenyl-4-oxazolyl)ethoxy]phenyl]propionamide], the EC50 in experiment [1] stood at 65 nM.

Regarding `COC(=O)NC(=O)CCc1ccc(OCCc2nc(-c3ccccc3)oc2C)cc1` [Example 19, Methyl N-[3-[4-[2-(5-methyl-2-phenyl-4-oxazolyl)ethoxy]phenyl]propionyl]carbamide], the EC50 in experiment [1] was 90 nM.

Turning to `CSC(=O)NC(=O)CCc1ccc(OCCc2nc(-c3ccccc3)oc2C)cc1` [Example 22], the EC50 in experiment [1] worked out at 90 nM. With `Cc1oc(-c2ccccc2)nc1CCOc1ccc(CC(C)(C(N)=O)C(=O)O)cc1` (centres unmarked) [Example 28, 2-Carbamoyl-2-methyl-3-[4-[2-(5-methyl-2-phenyl-4-oxazolyl)ethoxy]phenyl]propionic acid], the EC50 in experiment [1] was determined as 73 nM. As for `COC(=O)C(Cc1ccc(OCCc2nc(-c3ccccc3)oc2C)cc1)C(=O)OC` [Reference Example 1, Dimethyl 2-[4-[2-(5-methyl-2-phenyl-4-oxazolyl)ethoxy]benzyl]malonate], in experiment [1], the EC50 was determined as 0.38 nM. Further, the ED50 in experiment [2] worked out at 0.17 mg/kg.
